According to PubChem BioAssay (NCI):
Several values for one entry are separate records, joined by “and”; a condition that tells them apart may be missing. Equal values may be shown once.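 All cell lines were grown in 96-well plates and treated with compound for 48 hours. Abbreviation: GI50, concentration required for 50% inhibition of growth. TGI: total growth inhibition.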

Experiments:
Assay in all cases: growth of human tumour cells (NCI), 48 h
NCI-H522 lung = test system: NCI-H522 lung
OVCAR-4 ovarian = test system: OVCAR-4 ovarian
OVCAR-5 ovarian = test system: OVCAR-5 ovarian
SN12C renal = test system: SN12C renal
SF-295 CNS = test system: SF-295 CNS
NCI-H460 lung = test system: NCI-H460 lung
UACC-62 melanoma = test system: UACC-62 melanoma
NCI-H226 lung = test system: NCI-H226 lung
SF-268 CNS = test system: SF-268 CNS
A498 renal = test system: A498 renal

SMILES	TGI (NCI-H522 lung)	TGI (OVCAR-4 ovarian)	TGI (OVCAR-5 ovarian)	TGI (SN12C renal)	TGI (SF-295 CNS)	TGI (NCI-H460 lung)	TGI (UACC-62 melanoma)	TGI (NCI-H226 lung)	TGI (SF-268 CNS)	TGI (A498 renal)	GI50 (NCI-H522 lung)	GI50 (OVCAR-4 ovarian)	GI50 (OVCAR-5 ovarian)	GI50 (SF-295 CNS)	GI50 (NCI-H460 lung)	GI50 (UACC-62 melanoma)	GI50 (NCI-H226 lung)	GI50 (SF-268 CNS)	GI50 (A498 renal)	GI50 (SN12C renal)
CS(=O)(=O)N(CCC#N)c1ccc(C=O)cc1	> 100 µM	> 100 µM	> 100 µM	> 100 µM	> 100 µM	> 100 µM	> 100 µM	> 100 µM	> 100 µM	> 100 µM	–	–	–	–	–	–	–	–	–	–
NCCCN1CCN(CCCNc2nc3ccccc3c3[nH]c4ccccc4c23)CC1	1.31 µM	1.77 µM	1.48 µM	1.05 µM	1.83 µM	1.42 µM	1.1 µM	1.1 µM	1.94 µM	3.93 µM	0.242 µM	0.414 µM	0.292 µM	0.474 µM	0.32 µM	0.541 µM	0.442 µM	0.316 µM	1.62 µM	–
O=c1oc2c3ccc4cnccc4c3[nH]c2c2ccccc12	77.1 µM	31 µM	40.9 µM	85.5 µM	> 100 µM	30.2 µM	42.1 µM	72.6 µM	> 100 µM	> 100 µM	11.8 µM	15.5 µM	16.9 µM	41.7 µM	9.35 µM	17.6 µM	26.6 µM	13.1 µM	95.5 µM	19.3 µM
C=C(CNC(=O)c1ccccc1)c1ccc(C(=O)Nc2ccccc2N)cc1	10.1 µM	> 100 µM	> 100 µM	8.93 µM	> 100 µM	> 100 µM	11.4 µM	7.41 µM	> 100 µM	7.58 µM	2.6 µM	11.6 µM	2.22 µM	12.5 µM	8.02 µM	1.75 µM	1.39 µM	11.7 µM	1.37 µM	1.09 µM
N#C/C(=C\c1c(-c2ccccc2)[nH]c2ccccc12)C(=O)c1ccccc1	32.9 µM	> 100 µM	> 100 µM	> 100 µM	> 100 µM	> 100 µM	> 100 µM	> 100 µM	58.9 µM	> 100 µM	3.98 µM	65.3 µM	> 100 µM	3 µM	4.52 µM	3.6 µM	6.83 µM	5.73 µM	15.3 µM	5.66 µM
COC(=O)[C@]12CC[C@@H](C)[C@H](C)[C@@H]1C1=CC[C@@H]3[C@@]4(C)C(C=O)=C[C@@](C)(COS(C)(=O)=O)C4[C@H](O)C[C@@]3(C)[C@]1(C)CC2 (stereo partly drawn)	2.91 µM	6.06 µM	6.5 µM	6.39 µM	2.77 µM	4.93 µM	3.96 µM	7.31 µM	4.82 µM	16 µM	1.21 µM	1.84 µM	1.96 µM	1.31 µM	2.15 µM	1.66 µM	2.88 µM	2 µM	3.74 µM	2.28 µM
CNC1=C(C(=O)OC)SC(c2ccccc2)(c2ccccc2)SC1	> 100 µM	82.6 µM	> 100 µM	> 100 µM	39.4 µM	> 100 µM	> 100 µM	> 100 µM	> 100 µM	85.3 µM	4.01 µM	8.58 µM	> 100 µM	6.06 µM	16.9 µM	9.51 µM	> 100 µM	18.9 µM	11.4 µM	24 µM
Nc1c(C(=O)N/N=C/c2ccc(-c3cc(Cl)c(Cl)cc3Cl)o2)cnn1-c1ccnc2c(C(F)(F)F)cccc12	31.1 µM	9.4 µM	> 100 µM	> 100 µM	> 100 µM	16.9 µM	> 100 µM	> 100 µM	> 100 µM	37.7 µM	3.37 µM	2.6 µM	5.29 µM	3.27 µM	3.73 µM	3.94 µM	5.62 µM	5.2 µM	3.89 µM	4.42 µM
CCNNC(=O)[C@@H]1[C@H](c2cc(OC)c(OC)c(OC)c2)c2cc3c(cc2[C@H](O)[C@H]1CO)OCO3	0.833 µM	> 100 µM	> 100 µM	> 100 µM	> 100 µM	> 100 µM	> 100 µM	–	> 100 µM	0.703 µM	0.288 µM	2.37 µM	0.519 µM	0.32 µM	0.343 µM	0.398 µM	0.311 µM	1.31 µM	0.211 µM	0.449 µM
CN(CC(=O)O)Cc1oc(CO)cc(=O)c1O	> 100 µM	> 100 µM	> 100 µM	> 100 µM	> 100 µM	> 100 µM	> 100 µM	> 100 µM	> 100 µM	> 100 µM	–	–	–	–	–	–	–	–	–	–
C=C1C(=O)OC2/C=C(\CO)CC/C=C(\CO)CC(OC(=O)C(C)C)C12 (stereo not drawn)	4.11 µM	44 µM	29.8 µM	26.1 µM	45.5 µM	38.6 µM	29.4 µM	34.2 µM	19.8 µM	59.2 µM	–	–	–	–	–	–	–	–	–	–
CCc1ccc2nccc(NCCCN(C)C)c2c1[N+](=O)[O-]	> 100 µM	> 100 µM	90.8 µM	> 100 µM	> 100 µM	> 100 µM	> 100 µM	> 100 µM	> 100 µM	> 100 µM	–	–	–	–	–	–	–	–	–	–
Cc1nc2c(N3CCCC3)nc(N3CCNCC3)nc2nc1NCc1ccccc1	4.56 µM and 4.21 µM	11.7 µM and 21.7 µM	11.6 µM and 26.1 µM	13 µM and 19.9 µM	11.3 µM and 5.02 µM	13.3 µM and 13.4 µM	12.7 µM and 7.58 µM	16.1 µM and 28.4 µM	12.2 µM and 15.1 µM	9.77 µM and 27.2 µM	0.869 µM	5.57 µM	6.11 µM	5.81 µM	5.97 µM	6.15 µM	7.54 µM	5.75 µM	14.2 µM	6.39 µM
O=C(COc1cccc(/C=C2\Oc3ccc4ccccc4c3C2=O)c1)c1ccc(Cl)cc1	23.2 µM	> 100 µM	> 100 µM	37.5 µM	> 100 µM	> 100 µM	> 100 µM	> 100 µM	79.5 µM	> 100 µM	6.3 µM	5.56 µM	> 100 µM	> 100 µM	> 100 µM	81.9 µM	70.6 µM	23.1 µM	> 100 µM	16.8 µM
CCOC(=O)C1=C(Nc2ccc(Br)cc2)OC/C1=N\NC(=O)c1ccccc1O	34.2 µM	> 100 µM	> 100 µM	> 100 µM	> 100 µM	> 100 µM	8.63 µM	> 84 µM	> 100 µM	99.3 µM	–	–	–	–	–	–	–	–	–	–
CCOC(=O)C(C(=O)OCC)C(=O)c1ccccc1C(=O)c1ccccc1	> 100 µM	> 100 µM	> 100 µM	> 100 µM	> 100 µM	> 100 µM	> 100 µM	> 100 µM	> 100 µM	> 100 µM	–	–	–	–	–	–	–	–	–	–
CC(C)C[C@H](NC(=O)CCn1ccc2ncccc2c1=O)B(O)O	25 µM	> 100 µM	> 100 µM	> 100 µM	43.9 µM	> 100 µM	61.7 µM	6.13 µM	> 61.2 µM	21.3 µM	4.26 µM	24.9 µM	23.2 µM	11.5 µM	31.9 µM	5.93 µM	2.22 µM	12.6 µM	2.66 µM	18.9 µM
COc1c(Cl)ccc2c(-c3nc4cc(Cl)c(F)cc4s3)cc(=O)oc12	3.38 µM	70.6 µM	> 53.3 µM	> 90.3 µM	52 µM	> 100 µM	53.7 µM	> 69.3 µM	8.89 µM	36 µM	1.6 µM	12.9 µM	15.3 µM	10.4 µM	33.2 µM	16.5 µM	11.7 µM	2.93 µM	17.6 µM	23.2 µM
Cc1ncc(C(=O)Nc2ccc(CN3CCN(C)CC3)c(C(F)(F)F)c2)cc1C#Cc1c(N)ncc2ccccc12	0.992 µM	2.08 µM	0.985 µM	0.783 µM	1.14 µM	0.952 µM	0.781 µM	1.04 µM	1.09 µM	0.939 µM	0.46 µM	0.515 µM	0.415 µM	0.568 µM	0.447 µM	0.246 µM	0.393 µM	0.448 µM	0.485 µM	0.319 µM
COc1cc(F)c(/C=C/c2cc(/C=C/c3cc(OC)c(OC)cc3F)n(-c3cc(F)cc(F)c3)n2)cc1OC	5.47 µM	5.75 µM	10.3 µM	4.42 µM	11.4 µM	12.2 µM	3.32 µM	43.6 µM	13.6 µM	28.8 µM	1.91 µM	1.97 µM	2.96 µM	2.97 µM	3.43 µM	1.65 µM	14.8 µM	3.15 µM	14.5 µM	2.04 µM
OCC(CCc1c[nH]c2ccccc12)c1c[nH]c2ccccc12 (stereo not drawn)	29.4 µM	42.9 µM	33.2 µM	32.6 µM	42.9 µM	28 µM	27 µM	36.7 µM	32.4 µM	30.2 µM	–	–	–	–	–	–	–	–	–	–
